Measurements as given in US7906334B2, “Method for reproducing conifers by somatic embryogenesis using lactose as a carbon source” (Cellfor Inc., priority 2003, dated 2011).

How the values were obtained:
[1] = tested on: Loblolly pine megagametophytes containing immature zygotic embryos; test: Effect of carbon source on induction of loblolly pine; type: cell-based, Pinus taeda (loblolly pine)
Method: Female gametophytes containing the immature zygotic embryos were used as explants. The cones were surface sterilized in 10% bleach solution for 15 min. They were rinsed 3 times with sterile water, air dried and stored in polyethylene bags at 4° C. until used. Seeds were sterilized in 3% hydrogen peroxide containing 0.1% Tween 20 and rinsed in sterile deionized water. Megagametophytes containing the immature embryos were plated on TX medium (Table A) supplemented with 2.2 mg/l 2,4-D, 1 mg/l BA and 0.3% Phytagel and containing either 1% sucrose, or 1.5% lactose and 0.025% glucose.
Cultures were maintained on the two media by subculturing the embryogenic tissue every 10 to 14 days to fresh media. All cultures were incubated at 23° C. in the dark.

[2] = tested on: loblolly pine embryogenic tissue; test: Effect of carbon source on solid maintenance of loblolly pine; type: cell-based, Pinus taeda (loblolly pine); conditions: semi-solid TX medium; 1% sucrose, or 1.5% lactose and 0.025% glucose
Method: Tissue induced on sucrose from Example 1 was further maintained on the semi-solid TX medium containing 1% sucrose, and tissue induced on lactose was maintained on semi-solid TX medium containing 1.5% lactose and 0.025% glucose. The tissue morphology of the lines induced on lactose was different from the ones induced on sucrose. […] In order to further increase the proliferation rate, 0.5% sucrose was added to the TX 1.5% lactose-containing medium in place of 0.025% glucose. This medium provided a reasonable bulk-up rate, and growth of embryos was more synchronized than in the 1% sucrose medium.

[3] = tested on: Suspension cultures of loblolly lines LP1, LP2, LP3, LP4 and LP5; test: Effect of carbon source on liquid maintenance: growth rate and yield of somatic embryos; type: cell-based, Pinus taeda (loblolly pine); conditions: 1% sucrose
Method: Suspension cultures of loblolly lines LP1, LP2, LP3, LP4 and LP5 were started with 2 g of tissue introduced to 50 ml of TX liquid medium containing different sugars—1% sucrose, 1.5% maltose, or 1.5% lactose. These cultures were maintained in the same liquid media for 2 weeks by weekly transfers to fresh maintenance medium containing the above sugars. Then, 2 g of tissue produced in each maintenance medium was transferred to prematuration media I, containing the same carbon source as the maintenance media. After one week, 1.5 g of tissue from each prematuration medium I was transferred to prematuration media II containing the same sugars. After the 4 week period in liquid media, early stage somatic embryos were collected and plated on ½ LV maturation medium containing 120 μM ABA and 6.0% sucrose and 1% Phytagel. Eight to ten weeks later, mature somatic embryos were counted and treatments were evaluated based on the number of somatic embryos per gram fresh weight (SE/g FW). Table 2 summarises the tissue yield at the end of the 4-week period and the number of mature somatic embryos produced for each line.

[4] = tested on: loblolly pine lines LP2, LP3 and LP4; test: Effect of lactose during the prematuration steps; type: cell-based, Pinus taeda (loblolly pine); conditions: 1% sucrose maintenance
Method: Prematuration for loblolly pine may be performed in two steps: • 1. Prematuration I requires reduction of hormones either by reducing the auxin and cytokinin concentrations to optimally about 1/20 of the concentration of proliferation step, or by adding charcoal at about 0.01 to 1%, or a combination of both. • 2. Prematuration II follows prematuration I and requires an addition of ABA at concentrations of about 5 to 120 μM, preferably 90 μM and no auxin and cytokinins.
In order to further understand the effect of lactose on somatic embryo development, liquid maintenance cultures were started in TX medium containing 1% sucrose as in Example 3. Three lines were used in this experiment, LP2, LP3 and LP4. After the proliferation step, 2 g of the tissue was transferred for one week to prematuration medium I containing different concentrations of lactose—1.5%, 3% and 6%. After that, 1.5 g of tissue produced in the lactose-containing media was further cultured for a week in prematuration medium II containing the same amount of lactose. 3.

[5] = tested on: loblolly pine lines LP1 and LP3; test: Effect of galactose and galactose-containing sugars during proliferation and prematuration on SE yield; type: cell-based, Pinus taeda (loblolly pine); set-up: Amount of tissue at the end of the preculture II stage: unit not given here; conditions: for # SE/g FW / Amount of tissue at the end of the preculture II stage: 1% sucrose, 1.5% maltose, 1.5% lactose or 0.75% galactose
Method: The finding that loblolly pine cultures were capable of utilising galactose is unique. In order to further investigate these phenomenon two lines, LP1 and LP3, were cultured on semi-solid TX medium containing 1.0% lactose and 0.5% sucrose. Cultures were maintained by subculturing the embryogenic tissue every 10 to 14 days to fresh media. All cultures were incubated at 23° C. in the dark. Suspension cultures were initiated as described in Example 3, however, TX medium was supplemented with either 1% sucrose, 1.5% maltose, 1.5% lactose, or 0.75% galactose. These cultures were maintained in liquid media for 4 weeks by weekly transfers to fresh maintenance or prematuration media. After the 4˜week period, 1 ml of the liquid medium containing 0.1 g of tissue consisting of early stage somatic embryos was plated on each […] plates containing ½ LV maturation medium. This medium contained 120 μM ABA and 6.0% sucrose and 1% Phytagel. Eight to ten weeks later, mature somatic embryos were counted and treatments were evaluated based on the number of somatic embryos per gram fresh weight (Table 5).

[6] = tested on: Douglas fir embryogenic tissue, cell line DF-2; test: Effects of carbohydrates on liquid maintenance of Douglas fir embryogenic tissue; type: cell-based, Pseudotsuga menziesii (Douglas fir); conditions: 3 weeks suspension maintenance/bulking-up, 0.5% galactose, 1% lactose, 0.5% mannitol
Method: The culture medium for Douglas fir was TX medium (see Table A) with the following additives: glutamine 100 mg., Casein hydrolysate 100 mg., and pH 5.8. The following compounds were added into the basal medium for Douglas fir somatic embryo development at different stages: • 1) Induction medium: 18 μM 2,4-D and 9 μM BA, phytagel 0.28%, sucrose 1% • 2) Solid maintenance medium: 9 μM 2,4-D and 4.5 μM BA, phytagel 0.28%, sucrose 1%. • 3) Liquid maintenance and bulking-up medium: 9 μM 2,4-D and 4.5 μM BA, different carbon sources for experiments. • 4) Liquid pre-treatment medium: 20 (first week) or 30 μM ABA (second week), 10% PEG4000 (first week) or PEG1500 (second week), different carbon sources as described in examples below. • 5) Solid maturation media: TX (Table A) plus 0.02% NH4NO3 • Medium I. 40 μM ABA, 10% PEG 1500, maltose 2.5%, phytagel 0.6% • Medium II. 60 μM ABA, 10% PEG1500, maltose 2.5% and sucrose 1%, phytagel 0.8% • Medium III. 70 μM ABA, 6% PEG1500, sucrose 6%, phytagel 1%.
Embryogenic tissue was induced from immature zygotic embryos. The cones and seeds were surface-sterilised as described for pines, and embryos were dissected out from megagametophytes. The embryos, with the attachment of suspensors to their megagametophytes, were placed on the surface of induction medium. The culture was kept in darkness at 23° C. Embryogenic tissue was sub-cultured once every two weeks onto solid maintenance medium.
Embryogenic tissue of Douglas fir was collected from solid maintenance culture and one gram of tissue was transferred into a 200 ml flask containing 50 ml TX (see Table A) liquid maintenance medium. The liquid maintenance medium was supplied with different sugars (Table 8).
The tissue was drained, weighed and sub-cultured once per week. During a culture period of three weeks, the highest tissue growth was found in the culture with glucose as the major carbon source. The media containing sucrose, maltose and galactose also supported a fast tissue growth. With these latter sugars, tissue increased to 68 to 100 fold in three weeks. Tissue grew little in the media containing lactose or mannitol. […] Similar results were obtained within two cell lines, DF-7A and DF-2.

[7] = tested on: Douglas fir embryogenic tissue; test: Medium osmolarity before and after one-week tissue inoculation; type: cell-based, Pseudotsuga menziesii (Douglas fir); conditions: medium with 0.5% galactose, 1% lactose, 0.5% mannitol or 0.5% glucose
Text: More change of medium osmolarity occurred during week 2 than week 1. The medium osmolarity changed little when lactose or mannitol was used in the media.

[8] = then 1.5% lactose in prematuration I and II
[9] = then 3% lactose in prematuration I and II
[10] = then 6% lactose in prematuration I and II

Osmolarity before inoculation (mmol/kg, mean ± SD) [7]: 93.33 ± 0.58 mmol/kg
Compound: OC[C@H]1O[C@@H](O[C@H]2[C@H](O)[C@@H](O)C(O)O[C@@H]2CO)[C@H](O)[C@@H](O)[C@H]1O (stereo partly drawn) [Lactose]
Induction success, lactose medium compared with sucrose medium [1]: greater than three times higher
tissue morphology [2]: more early-stage immature embryos and a limited amount of suspensor type of surrounding tissue
# SE/g FW ± sd ([3]; 1.5% maltose or 1.5% lactose for 4 weeks in liquid, then 8-10 weeks on 1/2 LV maturation medium): 393 ± 10 SE/g FW
Average amount of tissue produced after 4 weeks in liquid (FW g) ([3]; 1.5% maltose or 1.5% lactose in maintenance and prematuration I and II, started with 2 g): 18.63 g
Mean # SE/g FW ± sd [4, 8]: 106 ± 9 SE/g FW
Mean grams FW at the end of prematuration stage [4, 8]: 121.90 g
Mean # SE/g FW ± sd [4, 9]: 209 ± 7 SE/g FW
Mean grams FW at the end of prematuration stage [4, 9]: 216.47 g
Mean # SE/g FW ± sd [4, 10]: 169 ± 10 SE/g FW
Mean grams FW at the end of prematuration stage [4, 10]: 149.13 g
embryos produced ([5]; line LP1, as stated in the text): over 1000 embryos
# SE/g FW ([5]; line LP1): 1060 ± 17 SE/g FW
Amount of tissue at the end of the preculture II stage ([5]; line LP1): 28.9
# SE/g FW ([5]; line LP3): 110 ± 7 SE/g FW
Amount of tissue at the end of the preculture II stage ([5]; line LP3): 8.78
Tissue growth (fold, mean ± SD) ([6]; additional glucose 0%, 0.5% glucose, 1% sucrose, 1% maltose): 1.40 ± 0.14 fold
Tissue growth (fold, mean ± SD) ([6]; additional glucose 0.025%): 2.75 ± 0.24 fold
